One assay has as its target T1, Coagulation factor VII (Homo sapiens, UniProt P08709).
T1 sequence (P08709 whole entry): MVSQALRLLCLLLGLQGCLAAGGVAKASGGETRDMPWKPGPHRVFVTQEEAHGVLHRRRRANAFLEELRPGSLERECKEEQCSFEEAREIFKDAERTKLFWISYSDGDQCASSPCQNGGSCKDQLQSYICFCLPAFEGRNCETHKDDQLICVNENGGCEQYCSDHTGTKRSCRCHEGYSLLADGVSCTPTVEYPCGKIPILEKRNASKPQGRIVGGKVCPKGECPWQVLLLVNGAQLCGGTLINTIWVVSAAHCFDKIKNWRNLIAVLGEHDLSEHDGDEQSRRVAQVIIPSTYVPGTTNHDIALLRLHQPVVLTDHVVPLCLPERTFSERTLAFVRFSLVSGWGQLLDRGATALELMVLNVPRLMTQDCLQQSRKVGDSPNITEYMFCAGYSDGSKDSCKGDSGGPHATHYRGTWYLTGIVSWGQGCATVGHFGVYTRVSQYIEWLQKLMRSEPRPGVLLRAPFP
The assay can be described thus: Inhibition of factor 7a by spectrophotometric assay.

The next assay addresses Prothrombin (Homo sapiens, UniProt P00734). Put plainly: Inhibition of thrombin by spectrophotometric assay.

Some results are limits rather than exact numbers.

Results on four compounds are retold here after ChEMBL document CHEMBL1148194, “Dysinosins B-D, inhibitors of factor VIIa and thrombin from the Australian sponge Lamellodysidea chlorea” (J Nat Prod, 2004).

One may read the Ki as the equilibrium dissociation constant of an inhibitor or competing ligand from its target.

As for `CO[C@H](COS(=O)(=O)[O-])C(=O)N[C@H](CC(C)C)C(=O)N1[C@H](C(=O)NCCC2=CC[N+](=C(N)N)C2)C[C@@H]2C[C@H](O)[C@@H](O)C[C@@H]21` [DYSINOSIN A], the Ki on Coagulation factor VII was determined as 108 nM; at Prothrombin, 452 nM.
Taken in the same sequence, the figures for `CO[C@H](COS(=O)(=O)[O-])C(=O)N[C@H](C(=O)N1[C@H](C(=O)NCCC2=CC[N+](=C(N)N)C2)C[C@@H]2C[C@H](O)[C@@H](O[C@H]3O[C@H](CO)[C@@H](O)[C@H](O)[C@H]3O)C[C@@H]21)C(C)C` [DYSINOSIN B] were 90 nM and 170 nM.
The matching figures for `CO[C@H](COS(=O)(=O)[O-])C(=O)N[C@H](C(=O)N1[C@H](C(=O)NCCC2=CC[N+](=C(N)N)C2)C[C@@H]2C[C@H](O)[C@@H](O)C[C@@H]21)C(C)C` [DYSINOSIN C]: 124 nM and 550 nM.
Consider `CO[C@H](CO)C(=O)N[C@H](C(=O)N1[C@H](C(=O)NCCC2=CC[N+](=C(N)N)C2)C[C@@H]2C[C@H](O)[C@@H](O)C[C@@H]21)C(C)C` [DYSINOSIN D], for which the Ki is 1320 nM on Coagulation factor VII and more than 5100 nM at Prothrombin.
